The nature of data set [1]: Photo-fading under near-infrared pulse laser irradiation. It is filed as physicochemical. The note with it: 4 irradiations. As for the experimental part: With respect to each of Cy7-PMPC (58 k) represented by the formula (47), 700DX-PMPC (57 k) represented by the formula (48), 800CW-PMPC (57 k) represented by the formula (49) and 800RS-PMPC (57 k) represented by the formula (50) obtained in Examples 22, 23, 24 and 25, respectively, and ICG-PMPC (48 k) represented by formula (46) described in Example 12, 2.0 mL of a sample was prepared in which the concentration of each dye-bound PMPC was adjusted so that the absorbance at the maximum absorption wavelength was 0.15. A sample of single ICG as Comparative Example was also prepared. Herein, the irradiation wavelength of near-infrared pulse laser light by use of the PAT apparatus and the excitation wavelength in fluorescence spectrum measurement were set to be the maximum absorption wavelengths of each dye-bound PMPC and ICG. Herein, the excitation wavelengths and the fluorescence emission wavelengths of each dye-bound PMPC and ICG were summarized in FIG. 16. The amount of near-infrared pulse laser light was set to be 8 to 9 mJ at each wavelength, and irradiation at 120 points (detector position) per 20 times was defined as one irradiation and such irradiation was performed at most four times. […] The resultant sample was placed in a 100-μL cuvette, subjected to fluorescence spectrum measurement (FP-6300 manufactured by JASCO Corporation), and studied with respect to photo-fading. […]

The conditions of data set [2]: background art; cited from earlier work.

Take `CC1(C)C(/C=C/C=C/C=C/C=C2/N(CCCCS(=O)(=O)[O-])c3ccc4ccccc4c3C2(C)C)=[N+](CCCCS(=O)(=O)[O-])c2ccc3ccccc3c21.[Na+]` [ICG, indocyanine green]: the “Photo-fading: normalized fluorescent intensity remaining after laser irradiation” value in data set [1] is reported as “about 15%”. Further, the Half-life in blood entry in data set [2] is given as “about several minutes”.

Source of the values: patent publication US10398788B2, “Polymer and contrast agent for photoacoustic imaging including the polymer” (CANON KABUSHIKI KAISHA, priority 2014, dated 2019).
